Measured values as given in patent US11390604B2 (Hoffmann-La Roche Inc., priority 2019, dated 2022).
Structures can show the parent of a compound that is named as a salt.

System: Acinetobacter baumannii ATCC 17961
Assay: Antimicrobial susceptibility testing: 90% growth inhibitory concentration (IC90) determination
Format: cell-based
Conditions: ATCC17961, Acinetobacter baumannii ATCC 17961, Iso-Sensitest broth, read-out: ATCC 17961 IC90
Procedure: Antimicrobial Susceptibility Testing:
90% Growth Inhibitory Concentration (IC90) Determination
The in vitro antimicrobial activity of the compounds was determined according to the following procedure:
The assay used a 10-points Iso-Sensitest broth medium to measure quantitatively the in vitro activity of the compounds against Acinetobacter baumannii ATCC 17961.
Stock compounds in DMSO were serially twofold diluted (e.g. range from 50 to 0.097 μM final concentration) in 384 wells microtiter plates and inoculated with 49 μl the bacterial suspension in Iso-Sensitest medium to have a final cell concentration of ˜5×10^(5) CFU/ml in a final volume/well of 50 ul/well. Microtiter plates were incubated at 35±2° C.
Bacterial cell growth was determined with the measurement of optical density at X=600 nm each 20 minutes over a time course of 16 h. Growth inhibition was calculated during the logarithmic growth of the bacterial cells with determination of the concentration inhibiting 50% (IC50) and 90% (IC90) of the growth.
Table 1 provides the 90% growth inhibitory concentrations (IC90) in micromoles per liter of the compounds of present disclosure obtained against the strain Acinetobacter baumannii ATCC 17961.

| IC90 [nM] | SMILES |
| --- | --- |
| 700 | Cn1c(-c2cn(CC(F)F)nc2C(F)(F)F)cnc1C(=O)Nc1ccc(C(=O)N2CCN(C(=O)C3CCNCC3)CC2)c(Cl)c1 [Example 12, N-(3-chloro-4-(4-(piperidine-4-carbonyl)piperazine-1-carbonyl)phenyl)-5-(1-(2,2-difluoroethyl)-3-(trifluoromethyl)-1H-pyrazol-4-yl)-1-methyl-1H-imidazole-2-carboxamide hydrochloride] |
| 335 | C#CCn1cc(-c2cnc(C(=O)Nc3ccc(C(=O)N4CCN(C(=O)C5CCN(C)CC5)CC4)c(Cl)c3)n2C)c(C(F)(F)F)n1 [Example 13, N-(3-chloro-4-(4-(1-methylpiperidine-4-carbonyl)piperazine-1-carbonyl)phenyl)-1-methyl-5-(1-(prop-2-yn-1-yl)-3-(trifluoromethyl)-1H-pyrazol-4-yl)-1H-imidazole-2-carboxamide] |
| 516 | CN1CCC(C(=O)N2CCN(C(=O)c3ccc(NC(=O)c4ncc(-c5c[nH]nc5C(F)(F)F)n4C)cc3Cl)CC2)CC1 [Example 14, N-[3-chloro-4-[4-(1-methylpiperidine-4-carbonyl)piperazine-1-carbonyl]phenyl]-1-methyl-5-[3-(trifluoromethyl)-1H-pyrazol-4-yl]imidazole-2-carboxamide] |
| 558 | CN1CCC(C(=O)N2CCN(C(=O)c3ccc(NC(=O)c4ncc(-c5cn(CC#N)nc5C(F)(F)F)n4C)cc3Cl)CC2)CC1 [Example 15, N-(3-chloro-4-(4-(1-methylpiperidine-4-carbonyl)piperazine-1-carbonyl)phenyl)-5-(1-(cyanomethyl)-3-(trifluoromethyl)-1H-pyrazol-4-yl)-1-methyl-1H-imidazole-2-carboxamide] |
| 1360 | Cn1c(-c2cn(C3CS(=O)(=O)C3)nc2C(F)(F)F)cnc1C(=O)Nc1ccc(C(=O)N2CCN(C(=O)C3CCNCC3)CC2)c(Cl)c1 [Example 16, N-(3-chloro-4-(4-(piperidine-4-carbonyl)piperazine-1-carbonyl)phenyl)-5-(1-(1,1-dioxidothietan-3-yl)-3-(trifluoromethyl)-1H-pyrazol-4-yl)-1-methyl-1H-imidazole-2-carboxamide] |
| 607 | Cn1c(-c2cn(CC#CCN)nc2C(F)(F)F)cnc1C(=O)Nc1ccc(C(=O)N2CCN(C(=O)C3CCNCC3)CC2)c(Cl)c1 [Example 17, 5-(1-(4-aminobut-2-yn-1-yl)-3-(trifluoromethyl)-1H-pyrazol-4-yl)-N-(3-chloro-4-(4-(piperidine-4-carbonyl)piperazine-1-carbonyl)phenyl)-1-methyl-1H-imidazole-2-carboxamide dihydrochloride] |
| 419 | COCC#CCn1cc(-c2cnc(C(=O)Nc3ccc(C(=O)N4CCN(C(=O)C5CCNCC5)CC4)c(Cl)c3)n2C)c(C(F)(F)F)n1 [Example 18, N-(3-chloro-4-(4-(piperidine-4-carbonyl)piperazine-1-carbonyl)phenyl)-5-(1-(4-methoxybut-2-yn-1-yl)-3-(trifluoromethyl)-1H-pyrazol-4-yl)-1-methyl-1H-imidazole-2-carboxamide hydrochloride] |
| 172 | CCC#CCn1cc(-c2cnc(C(=O)Nc3ccc(C(=O)N4CCN(C(=O)C5CCNCC5)CC4)c(Cl)c3)n2C)c(C(F)(F)F)n1 [Example 19, N-(3-chloro-4-(4-(piperidine-4-carbonyl)piperazine-1-carbonyl)phenyl)-1-methyl-5-(1-(pent-2-yn-1-yl)-3-(trifluoromethyl)-1H-pyrazol-4-yl)-1H-imidazole-2-carboxamide hydrochloride] |
| 1660 | Cn1c(-c2cn(CC(N)=O)nc2C(F)(F)F)cnc1C(=O)Nc1ccc(C(=O)N2CCN(C(=O)C3CCNCC3)CC2)c(Cl)c1 [Example 20, 5-(1-(2-amino-2-oxoethyl)-3-(trifluoromethyl)-1H-pyrazol-4-yl)-N-(3-chloro-4-(4-(piperidine-4-carbonyl)piperazine-1-carbonyl)phenyl)-1-methyl-1H-imidazole-2-carboxamide formate] |
| 1870 | CN(C)C(=O)Cn1cc(-c2cnc(C(=O)Nc3ccc(C(=O)N4CCN(C(=O)C5CCNCC5)CC4)c(Cl)c3)n2C)c(C(F)(F)F)n1 [Example 21, N-(3-chloro-4-(4-(piperidine-4-carbonyl)piperazine-1-carbonyl)phenyl)-5-(1-(2-(dimethylamino)-2-oxoethyl)-3-(trifluoromethyl)-1H-pyrazol-4-yl)-1-methyl-1H-imidazole-2-carboxamide formate] |
| 1290 | CC(C(N)=O)n1cc(-c2cnc(C(=O)Nc3ccc(C(=O)N4CCN(C(=O)C5CCNCC5)CC4)c(Cl)c3)n2C)c(C(F)(F)F)n1 (stereo not drawn) [Example 22, 5-(1-(1-amino-1-oxopropan-2-yl)-3-(trifluoromethyl)-1H-pyrazol-4-yl)-N-(3-chloro-4-(4-(piperidine-4-carbonyl)piperazine-1-carbonyl)phenyl)-1-methyl-1H-imidazole-2-carboxamide formate] |
| 1420 | Cn1c(-c2cn(CCn3cccn3)nc2C(F)(F)F)cnc1C(=O)Nc1ccc(C(=O)N2CCN(C(=O)C3CCNCC3)CC2)c(Cl)c1 [Example 23, 5-(1-(2-(1H-pyrazol-1-yl)ethyl)-3-(trifluoromethyl)-1H-pyrazol-4-yl)-N-(3-chloro-4-(4-(piperidine-4-carbonyl)piperazine-1-carbonyl)phenyl)-1-methyl-1H-imidazole-2-carboxamide formate] |
| 981 | CC(C)NC(=O)Cn1cc(-c2cnc(C(=O)Nc3ccc(C(=O)N4CCN(C(=O)C5CCNCC5)CC4)c(Cl)c3)n2C)c(C(F)(F)F)n1 [Example 24, N-(3-chloro-4-(4-(piperidine-4-carbonyl)piperazine-1-carbonyl)phenyl)-5-(1-(2-(isopropylamino)-2-oxoethyl)-3-(trifluoromethyl)-1H-pyrazol-4-yl)-1-methyl-1H-imidazole-2-carboxamide formate] |
| 2010 | COCCOCCn1cc(-c2cnc(C(=O)Nc3ccc(C(=O)N4CCN(C(=O)C5CCNCC5)CC4)c(Cl)c3)n2C)c(C(F)(F)F)n1 [Example 25, N-(3-chloro-4-(4-(piperidine-4-carbonyl)piperazine-1-carbonyl)phenyl)-5-(1-(2-(2-methoxyethoxy)ethyl)-3-(trifluoromethyl)-1H-pyrazol-4-yl)-1-methyl-1H-imidazole-2-carboxamide] |
| 1910 | Cn1c(-c2cn(C3CCN(C4CC4)C3=O)nc2C(F)(F)F)cnc1C(=O)Nc1ccc(C(=O)N2CCN(C(=O)C3CCNCC3)CC2)c(Cl)c1 (stereo not drawn) [Example 26, N-(3-chloro-4-(4-(piperidine-4-carbonyl)piperazine-1-carbonyl)phenyl)-5-(1-(1-cyclopropyl-2-oxopyrrolidin-3-yl)-3-(trifluoromethyl)-1H-pyrazol-4-yl)-1-methyl-1H-imidazole-2-carboxamide formate] |
| 531 | CC(C)Cn1cc(-c2cnc(C(=O)Nc3ccc(C(=O)N4CCN(C(=O)C5CCNCC5)CC4)c(Cl)c3)n2C)c(C(F)(F)F)n1 [Example 27, N-(3-chloro-4-(4-(piperidine-4-carbonyl)piperazine-1-carbonyl)phenyl)-5-(1-isobutyl-3-(trifluoromethyl)-1H-pyrazol-4-yl)-1-methyl-1H-imidazole-2-carboxamide] |
| 1490 | CNC(=O)Cn1cc(-c2cnc(C(=O)Nc3ccc(C(=O)N4CCN(C(=O)C5CCNCC5)CC4)c(Cl)c3)n2C)c(C(F)(F)F)n1 [Example 28, N-(3-chloro-4-(4-(piperidine-4-carbonyl)piperazine-l-carbonyl)phenyl)-1-methyl-5-(1-(2-(methylamino)-2-oxoethyl)-3-(trifluoromethyl)-1H-pyrazol-4-yl)-1H-imidazole-2-carboxamide formate] |
| 1450 | Cc1cc(NC(=O)c2ncc(-c3c[nH]nc3C(F)(F)F)n2C)ccc1C(=O)N1CCN(C(=O)C2CCNCC2)CC1 [Example 29, 1-Methyl-N-(3-methyl-4-(4-(piperidine-4-carbonyl)piperazine-1-carbonyl)phenyl)-5-(3-(trifluoromethyl)-1H-pyrazol-4-yl)-1H-imidazole-2-carboxamide dihydrochloride] |
| 867 | Cc1cc(NC(=O)c2ncc(-c3cn(CC#N)nc3C(F)(F)F)n2C)ccc1C(=O)N1CCN(C(=O)C2CCNCC2)CC1 [Example 30, 5-(1-(cyanomethyl)-3-(trifluoromethyl)-1H-pyrazol-4-yl)-1-methyl-N-(3-methyl-4-(4-(piperidine-4-carbonyl)piperazine-1-carbonyl)phenyl)-1H-imidazole-2-carboxamide] |
| 962 | C#CCn1cc(-c2cnc(C(=O)Nc3ccc(C(=O)NC[C@@H]4CCNC4)c(Cl)c3)n2C)c(C(F)(F)F)n1 [Example 31, (R)—N-(3-Chloro-4-((pyrrolidin-3-ylmethyl)carbamoyl)phenyl)-1-methyl-5-(1-(prop-2-yn-1-yl)-3-(trifluoromethyl)-1H-pyrazol-4-yl)-1H-imidazole-2-carboxamide hydrochloride] |
| 896 | C#CCn1cc(-c2cnc(C(=O)Nc3ccc(C(=O)NC[C@H]4CCNC4)c(Cl)c3)n2C)c(C(F)(F)F)n1 [Example 32, (S)-N-(3-chloro-4-((pyrrolidin-3-ylmethyl)carbamoyl)phenyl)-1-methyl-5-(1-(prop-2-yn-1-yl)-3-(trifluoromethyl)-1H-pyrazol-4-yl)-1H-imidazole-2-carboxamide hydrochloride] |
